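Growth conditions: 96-well plates. Treatment: test compound, 48 hours, 5 concentrations. Analysis: linear interpolation between bracketing concentrations; unreached endpoints set to highest concentration. The concentration for 50% growth inhibition is given as GI50.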 Activity calls are given as the source filed them. No stated cut-off is given here; in the data, active = GI50 up to about 1.1 µM and inactive = higher.
Key:
Assay in all cases: NCI-60 cell line screen, 48 h
[1] = test system: SNB-19
[2] = test system: OVCAR-4
[3] = test system: CAKI-1
[4] = test system: HCT-15
[5] = test system: NCI-H522
[6] = test system: SK-MEL-2
[7] = test system: LOX IMVI
[8] = test system: SK-OV-3
[9] = test system: MOLT-4
[10] = test system: UO-31
[11] = test system: ACHN
[12] = test system: OVCAR-8
[13] = test system: UACC-62
[14] = test system: SW-620
[15] = test system: MCF7
[16] = test system: HOP-92
[17] = test system: NCI-H23
[18] = test system: DU-145
[19] = test system: OVCAR-3
[20] = test system: SR

SMILES | GI50 [1] | GI50 [2] | GI50 [3] | GI50 [4] [µM] | GI50 [5] | GI50 [6] | GI50 [7] | GI50 [8] | GI50 [9] | GI50 [10] | GI50 [11] | GI50 [12] | GI50 [13] | GI50 [14] | GI50 [15] | GI50 [16] | GI50 [17] | GI50 [18] | GI50 [19] | GI50 [20]
O=C(O)CC1OCC=C2CN3CCC45C6=CC(=O)C(O)=C([N+](=O)[O-])C6=NC4C1C2CC35 (stereo not drawn) | > 100 µM (inactive) | > 100 µM (inactive) | > 100 µM (inactive) | > 100 | > 100 µM (inactive) | > 100 µM (inactive) | 40.8 µM (inactive) | > 100 µM (inactive) | 89.5 µM (inactive) | > 100 µM (inactive) | > 100 µM (inactive) | > 100 µM (inactive) | 34.4 µM (inactive) | 47 µM (inactive) | > 100 µM (inactive) | > 100 µM (inactive) | > 100 µM (inactive) | > 100 µM (inactive) | > 100 µM (inactive) | –
CCN(CC)C1Oc2cc3c(cc2C(c2cccc(OC)c2OC)C1C)OCO3 (stereo not drawn) | 8.07 µM (inactive) | – | 2.82 µM (inactive) | 3.93 | 4.13 µM (inactive) | 6.07 µM (inactive) | 3.66 µM (inactive) | 4.53 µM (inactive) | 4.01 µM (inactive) | 4.21 µM (inactive) | 3.22 µM (inactive) | 3.56 µM (inactive) | 11.4 µM (inactive) | 4.24 µM (inactive) | 5.08 µM (inactive) | – | 8.47 µM (inactive) | 3.23 µM (inactive) | 2.7 µM (inactive) | 0.729 µM (active)
CCN(CC)CCN1C(=O)c2c(c(-c3ccccc3)c3ccccc3c2-c2ccccc2)C1=O | 46.3 µM (inactive) | > 100 µM (inactive) | > 100 µM (inactive) | > 100 | > 100 µM (inactive) | > 100 µM (inactive) | > 100 µM (inactive) | > 100 µM (inactive) | > 100 µM (inactive) | – | > 100 µM (inactive) | > 100 µM (inactive) | > 100 µM (inactive) | > 100 µM (inactive) | > 100 µM (inactive) | 36.8 µM (inactive) | – | – | – | –
CC(C)CC(=O)NS(=O)(=O)c1ccccc1 | > 100 µM (inactive) | > 100 µM (inactive) | > 100 µM (inactive) | > 100 | > 100 µM (inactive) | > 100 µM (inactive) | > 100 µM (inactive) | > 100 µM (inactive) | > 100 µM (inactive) | > 100 µM (inactive) | > 100 µM (inactive) | > 100 µM (inactive) | > 100 µM (inactive) | > 100 µM (inactive) | – | > 100 µM (inactive) | > 100 µM (inactive) | – | > 100 µM (inactive) | > 100 µM (inactive)
[N-]=[N+]=NC1=C(N=[N+]=[N-])c2cccc3cccc(c23)C1=O | > 100 µM (inactive) | > 100 µM (inactive) | > 100 µM (inactive) | > 100 | > 100 µM (inactive) | > 100 µM (inactive) | > 100 µM (inactive) | > 100 µM (inactive) | 39.8 µM (inactive) | > 100 µM (inactive) | > 100 µM (inactive) | > 100 µM (inactive) | > 100 µM (inactive) | 57.7 µM (inactive) | > 100 µM (inactive) | > 100 µM (inactive) | > 100 µM (inactive) | – | > 100 µM (inactive) | 88.3 µM (inactive)
CN(Cc1cnc2nc(N)nc(N)c2n1)c1ccc(C(=O)NC2CCCCC2)cc1 | 14.9 µM (inactive) | – | 63.7 µM (inactive) | 20.8 | – | 35.5 µM (inactive) | 5.51 µM (inactive) | 54.6 µM (inactive) | 34.7 µM (inactive) | 87.3 µM (inactive) | 23.3 µM (inactive) | 14.2 µM (inactive) | 8.2 µM (inactive) | 11.1 µM (inactive) | 29 µM (inactive) | – | 36.1 µM (inactive) | 37.6 µM (inactive) | 56.2 µM (inactive) | 33.2 µM (inactive)
O=c1c2ccc(Cl)cc2oc2c(CNc3ccc(S(=O)(=O)Nc4ncccn4)cc3)cccc12 | > 100 µM (inactive) | > 100 µM (inactive) | > 100 µM (inactive) | > 100 | > 100 µM (inactive) | > 100 µM (inactive) | > 100 µM (inactive) | > 100 µM (inactive) | > 100 µM (inactive) | > 100 µM (inactive) | > 100 µM (inactive) | > 100 µM (inactive) | > 100 µM (inactive) | > 100 µM (inactive) | > 100 µM (inactive) | > 100 µM (inactive) | > 100 µM (inactive) | – | > 100 µM (inactive) | > 100 µM (inactive)
Clc1ccc(Nc2nnc(CNc3ccc(-c4nnc(Nc5ccc(Cl)cc5)o4)cc3)o2)cc1 | 18.7 µM (inactive) | 17.4 µM (inactive) | 17.9 µM (inactive) | 14.9 | 16 µM (inactive) | 18.3 µM (inactive) | 6.95 µM (inactive) | 22.6 µM (inactive) | 6.35 µM (inactive) | 14.5 µM (inactive) | 17.1 µM (inactive) | 8.87 µM (inactive) | 13.6 µM (inactive) | 20.9 µM (inactive) | 10.9 µM (inactive) | 23.9 µM (inactive) | 15.9 µM (inactive) | 12.7 µM (inactive) | 11.2 µM (inactive) | –
O=C(c1ccccc1)C1C(C(=O)c2ccccc2)N1Cc1ccccc1 (stereo not drawn) | 37 µM (inactive) | 39.9 µM (inactive) | 75.3 µM (inactive) | 57.3 | 24.5 µM (inactive) | 17.5 µM (inactive) | 31.2 µM (inactive) | 27.5 µM (inactive) | 40.6 µM (inactive) | 36.8 µM (inactive) | 41.9 µM (inactive) | 32.4 µM (inactive) | 15.7 µM (inactive) | 44.1 µM (inactive) | – | 26 µM (inactive) | 37.8 µM (inactive) | 24.4 µM (inactive) | 27.8 µM (inactive) | –
CC(C)(C)C1=CC(=N/N=c2\scc(-c3ccccc3)n2-c2ccccc2)C=C(C(C)(C)C)C1=O | > 100 µM (inactive) | > 100 µM (inactive) | > 100 µM (inactive) | > 100 | > 100 µM (inactive) | > 100 µM (inactive) | > 100 µM (inactive) | > 100 µM (inactive) | > 100 µM (inactive) | > 100 µM (inactive) | > 100 µM (inactive) | > 100 µM (inactive) | > 100 µM (inactive) | 86.5 µM (inactive) | – | > 100 µM (inactive) | > 100 µM (inactive) | – | > 100 µM (inactive) | > 100 µM (inactive)
CCOC(=O)C(C)(C)Oc1ccc(Cl)cc1 [CLOFIBRATE] | > 1000 µM (inactive) | 322 µM (inactive) | > 1000 µM (inactive) | 435 | 435 µM (inactive) | 173 µM (inactive) | 156 µM (inactive) | 986 µM (inactive) | 161 µM (inactive) | 726 µM (inactive) | > 1000 µM (inactive) | 63.1 µM (inactive) | 514 µM (inactive) | 614 µM (inactive) | 325 µM (inactive) | 177 µM (inactive) | 303 µM (inactive) | 935 µM (inactive) | – | –
